Assay [1] deals with SPIH channel. In words: Blockade of the SPIH channel by extracellular Cs+ on outside-out membrane patches. Type of assay: cell-based, Strongylocentrotus purpuratus. The procedure:
(§1) cDNA coding the SPIH polypeptide was transiently expressed in HEK293 cells, as described earlier (Baumann et al, 1994). SPIH-controlled currents were recorded with the patch-clamp method in the whole-cell configuration and cell-free membrane patches. The composition of various bath and pipette solutions is indicated in the legends of the figures (see below). The channels were activated by stepping the membrane voltage from +10 mV to various negative voltage values. Leakage currents were subtracted using a P/8 protocol. The voltage dependence of the probability that the channel is open was determined from tail currents at +10 mV. The blockade of the SPIH channel by Cs2+ was analyzed with outside-out membrane patches in the presence of 1 mM cAPM in a pipette solution. The solutions in the bath contained 0.03 to 10 mM CsCl. Relative ion permeabilities were calculated from the respective shift of Vrev, which was measured on cell-free inside-out membrane patches, when 100 mM K^+ in the bath had been replaced by Na^+, Li^+, Rb^+ or Cs^+.

In assay [2] the test system is SPIH channel. In words: Whole-cell patch-clamp of SPIH currents in transfected HEK293 cells, cyclic nucleotides or caged derivatives in the pipette. Type of assay: cell-based, Strongylocentrotus purpuratus. The method, then:
as §1, with “The voltage dependence of the probability that the channel is open was determined from tail currents at +10 mV. The blockade of the SPIH channel by Cs2+ was analyzed with outside-out membrane patches in the presence of 1 mM cAPM in a pipette solution.” left out, “Cs^+. […] The voltage-step protocol is the same as in FIG. 2A. The bath contained (mM): 135 NaCl, 5 KCl, 1.8 CaCl2, 2.8 MgCl2 and 5 Hepes-NaOH at pH 7.4; the pipette solution contained […]” for “Cs^+.”
In general terms: Patch clamp records ionic current or voltage across a cell membrane.

The target in assay [3] is T1, SPIH channel (Strongylocentrotus purpuratus, UniProt O76977).
T1 sequence (O76977 1-767): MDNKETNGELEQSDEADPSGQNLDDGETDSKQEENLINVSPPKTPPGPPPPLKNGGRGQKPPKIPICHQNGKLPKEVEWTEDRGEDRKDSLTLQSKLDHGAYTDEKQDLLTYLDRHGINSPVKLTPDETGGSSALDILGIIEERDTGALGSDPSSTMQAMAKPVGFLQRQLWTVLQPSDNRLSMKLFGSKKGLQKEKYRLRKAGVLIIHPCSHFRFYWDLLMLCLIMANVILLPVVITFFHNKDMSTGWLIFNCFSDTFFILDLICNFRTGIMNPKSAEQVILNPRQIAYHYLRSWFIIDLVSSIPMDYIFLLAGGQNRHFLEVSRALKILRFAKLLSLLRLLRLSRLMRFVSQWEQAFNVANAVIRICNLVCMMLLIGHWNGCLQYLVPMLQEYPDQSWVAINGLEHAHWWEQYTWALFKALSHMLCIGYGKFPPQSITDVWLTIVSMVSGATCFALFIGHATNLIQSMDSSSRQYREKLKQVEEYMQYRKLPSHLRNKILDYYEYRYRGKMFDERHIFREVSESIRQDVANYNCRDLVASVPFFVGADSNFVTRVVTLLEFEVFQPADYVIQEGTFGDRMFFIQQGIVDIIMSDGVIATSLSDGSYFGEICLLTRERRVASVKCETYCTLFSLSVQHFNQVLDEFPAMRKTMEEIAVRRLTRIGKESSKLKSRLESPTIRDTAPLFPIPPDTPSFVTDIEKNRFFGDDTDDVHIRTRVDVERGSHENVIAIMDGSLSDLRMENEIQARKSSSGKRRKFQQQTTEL
In words: Patch-clamp of SPIH currents on excised inside-out membrane patches of transfected HEK293 cells, modulation by cyclic nucleotides. Type of assay: cell-based. The procedure: as §1

Structures are written as SMILES. pKi: −log10 of the molar value.

As for `[Cs+]` [Cs^+], the effect on currents entry in the assay on SPIH channel [1] (10 mM Cs+ in the bath) is “inward currents disappeared completely”. Besides, the pKi on SPIH channel [1] (at −70 mV, 1 mM cAMP in pipette, Hill fit, read-out: inhibitory constant Ki for block of standardized current I/Imax) is 3.61.
On to `Nc1ncnc2c1ncn2[C@@H]1O[C@@H]2COP(=O)(O)O[C@H]2[C@H]1O` [cAMP], for which the “V1/2 of voltage dependence of Po” value in the assay on SPIH channel [2] (whole-cell tail currents, 1 mM cAMP in pipette, Boltzmann fit) was −50.8 mV; on SPIH channel [3] (inside-out-patch tail currents, 1 mM cAMP in bath, Boltzmann fit), −84.7 mV. The “enhancement of the amplitudes of the voltage-activated currents” value at SPIH channel [3] (1 mM cAMP, excised membrane patches) was “up to 20 fold”. Also, at SPIH channel [3] (inside-out patches, fit of Hill equation, mean of 10 experiments), the “Hill coefficient n of the cAMP dependence of the SPIH current” value is given as 1.05.
On to `Nc1nc2c(ncn2[C@@H]2O[C@@H]3COP(=O)(O)O[C@H]3[C@H]2O)c(=O)[nH]1` [cGMP], for which, in the assay on SPIH channel [2] (1 mM in the pipette), the “effect on SPIH-induced whole-cell currents” value is listed as “also changed the SPIH-induced currents”. In addition, the “effect on amplitude of the SPIH currents” value on SPIH channel [3] (cGMP concentrations of up to 1 mM, excised membrane patches) is “did not change the amplitude of the SPIH currents”.

For the origin of these results see patent US7547763B2, “Sequences of an Ih ion channel and use thereof” (Forschungszentrum Julich GmbH, priority 1998, dated 2009).
